Results from patent US11332455B2, “α,β-unsaturated amide compound” (KYOWA KIRIN CO., LTD., priority 2015, dated 2022).

Experiments:
Assay in all cases: Cell growth inhibitory effect, cell counting kit 8, 6 days
Format in all cases: cell-based
[1] = tested on: HuH28, a human liver cancer cell line; conditions: 144 h, HuH28 cells, 6 days incubation
Summary of the method: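 HuH28 human liver cancer cells (JCRB0426) were maintained below 80% density in RPMI1640 with 10% FBS and grown in 96-well flat-bottom plates. Test compound was serially diluted to 5 times final concentration and added with DMSO at 0.1%, then incubated for 6 days at 37° C in 5% CO2. Viable cells were counted with cell counting kit 8 at dosing and on day 6, using a 2 or 3 hour color reaction and absorbance at 450 nm. GI50 was derived from growth inhibition rates.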

[2] = tested on: NCI-H226 cells, a human mesothelioma cell line; conditions: 144 h, 6 days incubation
Summary of the method: (§1)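 Cells grown in RPMI1640 with 10% FBS, plated at 500 cells/well (NCI-H226, NCI-H322) and incubated one day before serially diluted compound was added (0.1% DMSO final). After 6 days at 37 °C, 5% CO2, CCK-8 colour developed 2–3 h and A450 read; GI50 derived from growth inhibition rate.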

[3] = tested on: NCI-H322 cells, a human lung cancer cell line; conditions: 144 h, 6 days incubation
Summary of the method: as §1

[4] = group 100 nmol/L to 1 μmol/L (upper bound given in μmol/L)

GI50 [1] [nM] | GI50 ([2]; group less than 100 nmol/L) [nM] | GI50 [3] [nM] | GI50 [2, 4] [nM] | SMILES
< 3000 | < 100 | < 1000 |  | C=CC(=O)NCc1ccc(Oc2cccc(C(F)(F)F)c2)c2ncccc12 [Compound 137, N-([8-{3-(Trifluoromethyl)phenoxy}quinolin-5-yl]methyl)acrylamide]
< 3000 | < 100 | < 1000 |  | C=CC(=O)NCc1ccc(Nc2ccc(C(F)(F)F)cc2)c2ncccc12 [Compound 203, N-{(8-[{4-(Trifluoromethyl)phenyl}amino]quinolin-5-yl)methyl}acrylamide]
< 3000 | < 100 | < 1000 |  | C=CC(=O)NC1CCOc2c1ccc(Oc1ccc(C(F)(F)F)cc1)c2OC (racemic) [Compound 33, N-[8-Methoxy-7-{4-(trifluoromethyl)phenoxy}chroman-4-yl]acrylamide]
< 3000 |  | < 1000 | 100 to 1000 | C=CC(=O)NCc1ccc(C(O)c2ccc(C(F)(F)F)cc2)c2ncccc12 (stereo not drawn) [Compound 206, N-{(8-[Hydroxy{4-(trifluoromethyl)phenyl}methyl]quinolin-5-yl)methyl}acrylamide]
< 3000 | < 100 | < 1000 |  | C=CC(=O)NCc1ccc(Oc2ccc(C(F)(F)F)cc2)c2nc(C)ccc12 [Compound 212, N-([2-Methyl-8-{4-(trifluoromethyl)phenoxy}quinolin-5-yl]methyl)acrylamide]
< 3000 | < 100 | < 1000 |  | C=CC(=O)NCc1ccc(Oc2ccc(C(F)(F)F)cc2)c2cnccc12 [Compound 223, N-([8-{4-(Trifluoromethyl)phenoxy}isoquinolin-5-yl]methyl)acrylamide]
< 3000 | < 100 | < 1000 |  | C=CC(=O)Nc1cncc(Oc2ccnc(C(F)(F)F)c2)c1 [Compound 108, N-(5-[{2-(Trifluoromethyl)pyridin-4-yl}oxy]pyridin-3-yl)acrylamide]
< 3000 | < 100 | < 1000 |  | C=CC(=O)NCc1ccc(Oc2ccc(C(F)(F)F)nc2)c2ncccc12 [Compound 143, N-{(8-[{6-(Trifluoromethyl)pyridin-3-yl}oxy]quinolin-5-yl)methyl}acrylamide]
< 3000 | < 100 | < 1000 |  | C=CC(=O)NCc1ccc(Oc2ccc(C(F)(F)F)cc2)c2ncccc12 [Compound 138, N-([8-{4-(Trifluoromethyl)phenoxy}quinolin-5-yl]methyl)acrylamide]
< 3000 | < 100 | < 1000 |  | C=CC(=O)N[C@H]1CC[C@@H](Oc2ccc(C(F)(F)F)cc2)c2nc(C3CC3)ccc21 (relative stereo) [Compound 185, cis-N-[2-Cyclopropyl-8-{4-(trifluoromethyl)phenoxy}-5,6,7,8-tetrahydroquinolin-5-yl]acrylamide]
< 3000 | < 100 | < 1000 |  | C=CC(=O)Nc1cncc(Oc2cccc(C(F)(F)F)c2)c1 [Compound 95, N-[5-{3-(Trifluoromethyl)phenoxy}pyridin-3-yl]acrylamide]
< 3000 | < 100 | < 1000 |  | C=CC(=O)Nc1cncc(Oc2cncc(C(F)(F)F)c2)c1 [Compound 107, N-(5-[{5-(Trifluoromethyl)pyridin-3-yl}oxy]pyridin-3-yl)acrylamide]
< 3000 | < 100 | < 1000 |  | C=CC(=O)NC1CCOc2c1ccc(Oc1ccc(C(F)(F)F)cc1)c2C (stereo not drawn) [Compound 28, N-[8-Methyl-7-{4-(trifluoromethyl)phenoxy}chroman-4-yl]acrylamide]
< 3000 | < 100 | < 1000 |  | C=CC(=O)NCc1ccc(Oc2ccc(C(F)(F)F)cc2)c2nccc(C)c12 [Compound 201, N-([4-Methyl-8-{4-(trifluoromethyl)phenoxy}quinolin-5-yl]methyl)acrylamide]
< 3000 |  | < 1000 | 100 to 1000 | Nc1cncc(OCC2CCC(F)(F)CC2)c1 [Compound 192, 5-[(4,4-Difluorocyclohexyl)methoxy]pyridin-3-amine]
< 3000 | < 100 | < 1000 |  | C=CC(=O)NCc1ccc(Sc2ccc(C(F)(F)F)cc2)c2ncccc12 [Compound 202, N-{(8-[{4-(Trifluoromethyl)phenyl}thio]quinolin-5-yl)methyl}acrylamide]
< 3000 | < 100 | < 1000 |  | C=CC(=O)N[C@H]1CC[C@@H](Oc2ccc(C(F)(F)F)c(F)c2)c2nc(Cl)ccc21 (relative stereo) [Compound 187, cis-N-[2-Chloro-8-{3-fluoro-4-(trifluoromethyl)phenoxy}-5,6,7,8-tetrahydroquinolin-5-yl]acrylamide]
< 3000 | < 100 | < 1000 |  | C=CC(=O)N[C@H]1CC[C@@H](Oc2cccc(Cl)c2)c2ncccc21 (relative stereo) [Compound 68, cis-N-{8-(3-Chlorophenoxy)-5,6,7,8-tetrahydroquinolin-5-yl}acrylamide]
< 3000 | < 100 | < 1000 |  | C=CC(=O)NCc1cc(Oc2ccnc(Cl)c2)nc2ccccc12 [Compound 150, N-([2-{(2-Chloropyridin-4-yl)oxy}quinolin-4-yl]methyl)acrylamide]
< 3000 | < 100 | < 1000 |  | C=CC(=O)N[C@H]1CC[C@@H](Oc2ccc(C(F)(F)F)cn2)c2nc(Cl)ccc21 (relative stereo) [Compound 189, cis-N-(2-Chloro-8-[{5-(trifluoromethyl)pyridin-2-yl}oxy]-5,6,7,8-tetrahydroquinolin-5-yl)acrylamide]
< 3000 | < 100 | < 1000 |  | C=CC(=O)NCc1ccc(Oc2ccc(Cl)cc2)c2c1CCCO2 [Compound 176, N-[{8-(4-Chlorophenoxy)chroman-5-yl}methyl]acrylamide]
< 3000 | < 100 | < 1000 |  | C=CC(=O)Nc1ccc(OCC2CCC(F)(F)CC2)c2ncccc12 [Compound 126, N-[8-{(4,4-Difluorocyclohexyl)methoxy}quinolin-5-yl]acrylamide]
< 3000 | < 100 | < 1000 |  | C=CC(=O)N[C@H]1CC[C@@H](Oc2ccc(C(F)(F)F)cc2)c2nc(OC)ccc21 (relative stereo) [Compound 179, cis-N-[2-Methoxy-8-{4-(trifluoromethyl)phenoxy}-5,6,7,8-tetrahydroquinolin-5-yl]acrylamide]
< 3000 | < 100 | < 1000 |  | C=CC(=O)N[C@@H]1c2ccc(Oc3ccc(C(F)(F)F)cc3)cc2OC[C@H]1F (relative stereo) [Compound 22, trans-N-[3-Fluoro-7-{4-(trifluoromethyl)phenoxy}chroman-4-yl]acrylamide]
< 3000 | < 100 | < 1000 |  | C=CC(=O)NC1CCOc2cc(Oc3ccc(C(F)(F)F)cc3)ccc21 (stereo not drawn) [Compound 5, N-[7-{4-(trifluoromethyl)phenoxy}chroman-4-yl]acrylamide]
< 3000 |  | < 1000 | 100 to 1000 | C=CC(=O)NC1CCOc2c1ccc(Oc1ccc(F)c(F)c1)c2OC (stereo not drawn) [Compound 164, N-{7-(3,4-Difluorophenoxy)-8-methoxychroman-4-yl}acrylamide]
< 3000 | < 100 | < 1000 |  | C=CC(=O)NCc1cnc(Oc2ccc(C(F)(F)F)cc2)c2ccccc12 [Compound 222, N-([1-{4-(Trifluoromethyl)phenoxy}isoquinolin-4-yl]methyl)acrylamide]
< 3000 | < 100 | < 1000 |  | C=CC(=O)NCc1cc(Oc2ccnc(C(F)(F)F)c2)nc2ccccc12 [Compound 151, N-{(2-[{2-(Trifluoromethyl)pyridin-4-yl}oxy]quinolin-4-yl)methyl}acrylamide]
< 3000 | < 100 | < 1000 |  | C=CC(=O)NCc1ccc(Oc2ccc(C(F)(F)F)nc2)c2ncc(C)cc12 [Compound 200, N-{(3-Methyl-8-[{6-(trifluoromethyl)pyridin-3-yl}oxy]quinolin-5-yl)methyl}acrylamide]
< 3000 | < 100 | < 1000 |  | C=CC(=O)NCc1ccc(Oc2ccc(C(F)(F)F)cc2)c2ccncc12 [Compound 225, N-([5-{4-(Trifluoromethyl)phenoxy}isoquinolin-8-yl]methyl)acrylamide]

SMILES | GI50 [1] [nM] | GI50 ([2]; group less than 100 nmol/L) [nM] | GI50 [3] [nM] | GI50 [2, 4] [nM]
C=CC(=O)NC1COc2c(cccc2Oc2cnc(C(F)(F)F)nc2)C1 (stereo not drawn) [Compound 155, N-(8-[{2-(Trifluoromethyl)pyrimidin-5-yl}oxy]chroman-3-yl)acrylamide] | < 3000 | < 100 | < 1000 | 
